Results published in patent US9779901B2, “High temperature material compositions for high temperature thermal cutoff devices” (Therm-O-Disc, Incorporated, priority 2008, dated 2017).
Where a name gives a salt, the structure may show the parent alone.

Conditions: not given

| SMILES | Melting Point [°C] |
| --- | --- |
| CN[C@H]1CC[C@@H](c2ccccc2)c2ccccc21 (as salt: hydrochloride) [Example 6] | 241 to 242 |
| N#CC(CCN1CCC(C(=O)ON2C(=O)CCC2=O)(c2ccccc2)CC1)(c1ccccc1)c1ccccc1 (as salt: hydrochloride) [Example 17] | 242 to 244 |
| CC1NCCc2c1[nH]c1cc(O)ccc21 (stereo not shown) (as salt: hydrochloride) [Example 100] | 254 to 255 |
| CC(=O)Oc1c(C)c(C)c2c(c1C)CCC(C)(CCN(C)C)O2 (stereo not shown) (as salt: hydrochloride) [Example 172] | 263 to 270 |
| C1=CCC2=C(C1)CC1=C(C2)CC2=C(CC=CC2)C1 [Example 4] | 241 to 242 |
| CCOc1cccc(C#N)c1 [Example 5] | 241 to 244 |
| O=C1NC(=O)C2(CCC(O)C2)c2ccncc21 (stereo not shown) [Example 8] | 240 to 243 |
| c1cc2c3c(cccc3c1)-c1nc3ccccc3nc1-2 [Example 10] | 241 |
| O=[N+]([O-])c1cccc2nc[nH]c12 [Example 12] | 242 |
| NC(=O)CCCC[C@@H]1SC[C@@H]2NC(=O)N[C@@H]21 [Example 13] | 242 to 244 |
| CC(C)C(=O)OC1C[C@H]2CC[C@@H](C1)N2C (stereo partly shown) [Example 14] | 242 |
| c1cnc2c(ccc3nccnc32)n1 [Example 20] | 242 |
| CC(C)(C)C1=CC(=C2C=C(C(C)(C)C)C(=O)C(C(C)(C)C)=C2)C=C(C(C)(C)C)C1=O [Example 22] | 243 to 245 |
| Cc1nc2ccccc2c2ccc([N+](=O)[O-])cc12 [Example 23] | 243 to 245 |
| Nc1ccc2ccccc2c1-c1c(N)ccc2ccccc12 [Example 25] | 242.5 to 243 |
| CC1=C(/C=C/C(C)=C/C=C/C(C)=C/C=C/C=C(C)/C=C/C=C(C)/C=C/C2=C(C)C(=O)C(=O)C2(C)C)C(C)(C)C(=O)C1=O [Example 26] | 243 |
| Cc1cc(C)c(C=O)cc1C [Example 28] | 243 |
| O=c1ccc2c(O)cccc2o1 [Example 31] | 244 to 247 |
| Nc1ccc(C(=O)c2ccc(N)cc2)cc1 [Example 33] | 244 to 245 |
| COc1ccccc1[C@H](C)C(=O)N1C[C@@H]2[C@H](C1)C(c1ccccc1)(c1ccccc1)CC[C@@]2(O)c1ccccc1OC [Example 34] | 244 |
| Nc1nc(N)nc(Cc2ccccc2)n1 [Example 67] | 248 |
| Cc1ccc2cc3cc(C)ccc3cc2c1 [Example 80] | 250 |
| Oc1cccc2nc3ccccc3cc12 [Example 84] | 230 |
| O=c1nc(Cc2ccccc2)[nH]c2ccccc12 [Example 102] | 254 to 256 |
| c1ccc2cc3c(ccc4cc5ccccc5cc43)cc2c1 [Example 123] | 257 |

Conditions: estimated melting point temperature ranges of candidate organic compounds (Table 2); some compounds have several values, partly in parentheses, because analytic techniques differ; cited from earlier work

| SMILES | Melting Point |
| --- | --- |
| CCCOc1ccccc1-c1nc2nn[nH]c2c(=O)[nH]1 [Example 1] | 241° ° C. |
| CCCN(CCC)CCc1cccc2c1CC(=O)N2 [Example 2] | 241-243° ° C. |
| Cl.c1ccc(N=C(Nc2ccccc2)Nc2ccccc2)cc1 [Example 3] | 241° ° C. |
| C1=CCC2=C(C1)CC1=C(C2)CC2=C(CC=CC2)C1 [Example 4] | 241-242° ° C. |
| CCOc1cccc(C#N)c1 [Example 5] | 241-244° ° C. |
| CN[C@H]1CC[C@@H](c2ccccc2)c2ccccc21 [Example 6] | 241-242° ° C. |
| Cc1ccc2cc3ccc(C)cc3cc2c1 [Example 7] | 241° ° C. |
| O=C1NC(=O)C2(CCC(O)C2)c2ccncc21 (stereo not shown) [Example 8] | 240-243° ° C. |
| Nc1nnc(-c2ccccc2)o1 [Example 9] | 241-243° ° C. |
| c1cc2c3c(cccc3c1)-c1nc3ccccc3nc1-2 [Example 10] | 241° ° C. |
| O=[N+]([O-])c1cccc2nc[nH]c12 [Example 12] | 242° ° C. |
| NC(=O)CCCC[C@@H]1SC[C@@H]2NC(=O)N[C@@H]21 [Example 13] | 242-244° ° C. |
| O=C1C=CC=CC1=C1Nc2ccccc2N1 [Example 15] | 242° ° C. |
| C[C@]12CCC(=O)C[C@H]1CC[C@@H]1[C@@H]2CC[C@]2(C)[C@@H](c3ccc(=O)oc3)CC[C@]12O [Example 16] | 242-245° ° C. |
| N#CC(CCN1CCC(C(=O)ON2C(=O)CCC2=O)(c2ccccc2)CC1)(c1ccccc1)c1ccccc1 [Example 17] | 242-244° ° C. |
| CC1(C)Oc2ccc(C#N)cc2[C@@H](N2CCCC2=O)[C@@H]1O [Example 18] | 242-244° ° C. |
| c1cnc2c(ccc3nccnc32)n1 [Example 20] | 242° ° C. |
| CC(C)(C)C1=CC(=C2C=C(C(C)(C)C)C(=O)C(C(C)(C)C)=C2)C=C(C(C)(C)C)C1=O [Example 22] | 243-245° ° C. |
| Cc1nc2ccccc2c2ccc([N+](=O)[O-])cc12 [Example 23] | 243-245° ° C. |
| Nc1ccc2ccccc2c1-c1c(N)ccc2ccccc12 [Example 25] | 242.5-243° ° C. |
| CC1=C(/C=C/C(C)=C/C=C/C(C)=C/C=C/C=C(C)/C=C/C=C(C)/C=C/C2=C(C)C(=O)C(=O)C2(C)C)C(C)(C)C(=O)C1=O [Example 26] | 243° ° C. |
| O=C1C(=O)c2cccc3cccc1c23 [Example 27] | 243-245° ° C. |
| Cc1cc(C)c(C=O)cc1C [Example 28] | 243° ° C. |
| [H]/N=C(\N/C(=N/[H])Nc1ccc(Cl)cc1)NC(C)C [Example 30] | 244-245° ° C. |
| O=c1ccc2c(O)cccc2o1 [Example 31] | 244-247° ° C. |
| c1ccc(Nc2ccc(-c3ccc(Nc4ccccc4)cc3)cc2)cc1 [Example 32] | 244-245° ° C. |

| SMILES | Melting Point |
| --- | --- |
| Nc1ccc(C(=O)c2ccc(N)cc2)cc1 [Example 33] | 244-245° ° C. |
| COc1ccccc1[C@H](C)C(=O)N1C[C@@H]2[C@H](C1)C(c1ccccc1)(c1ccccc1)CC[C@@]2(O)c1ccccc1OC [Example 34] | 244° ° C. |
| c1ccc2c(C(c3c[nH]c4ccccc34)c3c[nH]c4ccccc34)c[nH]c2c1 [Example 38] | 244-246° ° C. |
| NC(=O)c1cccc2nc3ccccc3nc12 [Example 42] | 245-246° ° C. |
| CN1C(=O)C(=NNC(N)=S)c2ccccc21 [Example 43] | 245° ° C. |
| CCC(N)Cc1cc(OC)c(C)cc1OC (stereo not shown) [Example 46] | 245-246.5° ° C. |
| O=C(Nc1ccccc1)Nc1ccccc1 [Example 49] | 246-248° ° C. |
| Cn1c(=S)c2c(ncn2C)n(C)c1=O [Example 52] | 246-247° ° C. |
| c1ccc(-c2c3ccccc3c(-c3ccccc3)c3ccccc23)cc1 [Example 54] | 246-248° ° C. |
| CC(C)c1nc2nc(N)nc(N)c2nc1C(C)C [Example 55] | 246° ° C. |
| Nc1ccc(S(=O)(=O)Nc2cnc3ccccc3n2)cc1 [Example 58] | 247-248° ° C. |
| CCCC1C(=O)N2C(N(C)C)=Nc3ccc(C)cc3N2C1=O (stereo not shown) [Example 62] | 247-248° ° C. |
| Oc1nc2ccccc2nc1-c1ccccc1 [Example 64] | 247° ° C. |
| CC(=O)[C@H]1CC[C@H]2[C@@H]3CCc4cc(O)ccc4[C@H]3CC[C@]12C [Example 65] | 247-249° ° C. |
| O=c1ccc2[nH]cc(C3=CCNCC3)c2[nH]1 [Example 66] | 248° ° C. |
| Nc1cc(N)nc(N)n1 [Example 70] | 249-251° ° C. |
| COc1cccc2c1CCCC2N (stereo not shown) [Example 76] | 249-250° ° C. |
| Nc1nc(N)c2ccccc2n1 [Example 78] | 250-252° ° C. |
| Nc1ccc(N=Nc2ccc(N)cc2)cc1 [Example 81] | 250° ° C. |
| CN(C)c1ncnc2nc[nH]c12 [Example 89] | 251-253° ° C. |
| O=C(Nc1ccccc1)C(=O)Nc1ccccc1 [Example 91] | 252-254° ° C. |
| Cc1cc2cc3ccccc3cc2cc1C [Example 93] | 252° ° C. |
| Nc1cccc2c1C(=O)c1ccccc1C2=O [Example 96] | 253-254° ° C. |
| Nc1nc2ccc([N+](=O)[O-])cc2s1 [Example 97] | 253° ° C. |
| N#Cc1cncnc1N [Example 104] | 254-256° ° C. |
| O=C1C2C(c3ccccc3)NC(c3ccccc3)C1C(c1ccccc1)NC2c1ccccc1 (stereo not shown) [Example 106] | 255-256° ° C. |

| SMILES | Melting Point |
| --- | --- |
| Nc1ccc2nc(N)nc(N)c2c1 [Example 109] | 255-258° ° C. |
| O=[N+]([O-])c1c2ccccc2c2ccc3cccc4ccc1c2c43 [Example 111] | 255-256° ° C. |
| Oc1cc(-c2ccccc2)nc2ccccc12 [Example 114] | 255-257° ° C. |
| c1cc(-c2sc(-c3ccncc3)c(-c3ccncc3)c2-c2ccncc2)ccn1 [Example 116] | 256-258° ° C. |
| Cn1c(=O)c(=O)n(C)c2ccccc21 [Example 120] | 256-258° ° C. |
| O=C1C(=O)c2cccnc2-c2ncccc21 [Example 126] | 258° ° C. |
| NC1=CC(=O)c2ncccc2C1=O [Example 131] | 258-260° ° C. |
| Cc1ccc2c(c1)[nH]c1ccccc12 [Example 133] | 259° ° C. |
| Cc1cc(C)c(C#N)c(=S)[nH]1 [Example 134] | 259-260° ° C. |
| COc1nc(C)nc(N)n1 [Example 135] | 259-261° ° C. |
| OC1C2CC3CC(C2)CC1C3 (stereo not shown) [Example 140] | 260-265° ° C. |
| OCC(CO)(CO)CO [Example 144] | 260° ° C. |
| Oc1ccc2cccc(O)c2n1 [Example 146] | 260° ° C. |
| O=C1CN(N=C/C=C/c2ccc([N+](=O)[O-])o2)C(=O)N1 [Example 151] | 261° ° C. |
| COC(=O)c1cc2c(cn1)[nH]c1ccccc12 [Example 153] | 261-262° ° C. |
| N#Cc1cc(C#N)cc(C#N)c1 [Example 157] | 261-263° ° C. |
| Cc1ccc(NC(=O)Nc2ccc(C)cc2)cc1 [Example 167] | 262-263° ° C. |
| COc1ccc2nc(S)[nH]c2c1 [Example 170] | 263-264° ° C. |
| CC(=O)Oc1c(C)c(C)c2c(c1C)CCC(C)(CCN(C)C)O2 (stereo not shown) [Example 172] | 263-270° ° C. |
| NC1=CC(=O)c2cccnc2C1=O [Example 177] | 263° ° C. |
| Cn1c(=O)c2[nH]cnc2n(C)c1=O [Example 179] | 264° ° C. |
| CN/C(=N\c1ccc(C2=NNC(=O)CC2C)cc1)NC#N (stereo not shown) [Example 180] | 264-265° ° C. |
| C[C@]12CC[C@@H]3c4ccc(O)cc4C=C[C@H]3[C@@H]1CCC2=O [Example 186] | 264-265° ° C. |
| NC(=O)c1ccc(Oc2ccc(C(N)=O)cc2)cc1 [Example 193] | 265° ° C. |
| Cc1c(C)c2cccnc2c2ncccc12 [Example 195] | 265-266° ° C. |
| COc1ccc(-c2cc(=O)c3ccc(O)cc3o2)cc1 [Example 196] | 265-267° ° C. |
